The results in this text go back to patent US11970498B2, “CDK2 inhibitors” (BLUEPRINT MEDICINES CORPORATION, priority 2021, dated 2024).

Assay [1] addresses T1, CDK1/Cyclin B1, GST-tag (Homo sapiens, UniProt P06493).
T1 construct: GST
Briefly: CDK1/Cyclin B1 biochemical phosphorylation assay (Caliper mobility shift). The settings on record: apparent IC50; 1.0 mM ATP or ATP Km; 1.5 nM enzyme; 25° C. The method in brief:
(§1)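 Caliper electrophoretic separation of substrate and phosphopeptide gave apparent IC50s. Enzymes: CDK1/Cyclin B1 GST-tag 1.5 nM, CDK2/Cyclin E 1.25 nM; ATP 1.0 mM or at Km; 7.5 µM FL-peptide; pH 7.5 HEPES buffer, 1% DMSO; room temperature until 10–20% phosphorylated, then EDTA quench.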

In assay [2] the target is CDK2/Cyclin E (Homo sapiens, UniProt P24941). Briefly: CDK2/Cyclin E biochemical phosphorylation assay (Caliper mobility shift). The settings on record: apparent IC50; 1.0 mM ATP or ATP Km; 1.25 nM enzyme; 25° C.; read-out: CDK2/cyclin E1 IC50. In short, it runs like this:
as §1

T1 sequence (P06493 whole entry): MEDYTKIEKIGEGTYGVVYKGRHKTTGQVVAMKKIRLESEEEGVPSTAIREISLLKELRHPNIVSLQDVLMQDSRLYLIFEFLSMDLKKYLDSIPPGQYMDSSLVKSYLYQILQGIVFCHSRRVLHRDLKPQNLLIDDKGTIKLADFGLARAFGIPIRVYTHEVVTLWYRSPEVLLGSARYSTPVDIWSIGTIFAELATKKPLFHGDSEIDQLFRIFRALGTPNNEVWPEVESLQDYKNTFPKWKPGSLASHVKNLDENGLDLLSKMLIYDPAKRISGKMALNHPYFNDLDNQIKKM
T1 sequence (P14635 whole entry partner): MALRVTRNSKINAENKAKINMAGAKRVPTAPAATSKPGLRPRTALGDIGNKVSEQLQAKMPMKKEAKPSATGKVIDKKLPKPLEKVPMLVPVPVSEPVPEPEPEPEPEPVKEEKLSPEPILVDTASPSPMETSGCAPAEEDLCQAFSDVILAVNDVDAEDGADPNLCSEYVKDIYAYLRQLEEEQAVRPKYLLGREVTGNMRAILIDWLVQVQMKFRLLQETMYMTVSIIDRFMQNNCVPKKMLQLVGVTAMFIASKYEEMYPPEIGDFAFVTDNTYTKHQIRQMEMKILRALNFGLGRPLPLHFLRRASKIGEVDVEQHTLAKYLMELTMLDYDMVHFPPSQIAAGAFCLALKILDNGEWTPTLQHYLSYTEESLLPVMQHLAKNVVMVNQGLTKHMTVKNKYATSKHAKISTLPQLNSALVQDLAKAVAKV

In the case of `COc1cc(Nc2cnc3cnn([C@@H](CF)C4CCOCC4)c3n2)n[nH]1` (single isomer, unassigned) [Example 195, (S)-1-(2-fluoro-1-(tetrahydro-2H-pyran-4-yl)ethyl)-N-(5-methoxy-1H-pyrazol-3-yl)-1H-pyrazolo[3,4-b]pyrazin-6-amine or (R)-1-(2-fluoro-1-(tetrahydro-2H-pyran-4-yl)ethyl)-N-(5-methoxy-1H-pyrazol-3-yl)-1H-pyrazolo[3,4-b]pyrazin-6-amine], the IC50 in assay [1] was at least 500 nM; in assay [2] it was over 100 nM.
The corresponding values for `O[C@H]1CC[C@@H](n2ncc3ncc(Nc4cc(OC(F)F)[nH]n4)nc32)C1` (single isomer, unassigned) [Example 208] are at least 500 nM and at most 10 nM.
The matching figures for `O=C1C[C@H](Cn2ncc3ncc(Nc4cc(OC(F)F)[nH]n4)nc32)CN1` (single isomer, unassigned) [Example 20, (S)-4-((6-((5-(difluoromethoxy)-1H-pyrazol-3-yl)amino)-1H-pyrazolo[3,4-b]pyrazin-1-yl)methyl)pyrrolidin-2-one or (R)-4-((6-((5-(difluoromethoxy)-1H-pyrazol-3-yl)amino)-1H-pyrazolo[3,4-b]pyrazin-1-yl)methyl)pyrrolidin-2-one]: at least 500 nM and at most 10 nM.
The corresponding values for `C[C@H](CO)Cn1ncc2ncc(Nc3cc(OC(F)F)[nH]n3)nc21` [Example 199, (S)-3-(6-((5-(difluoromethoxy)-1H-pyrazol-3-yl)amino)-1H-pyrazolo[3,4-b]pyrazin-1-yl)-2-methylpropan-1-ol] are at least 500 nM and 30 to 100 nM.
With `O[C@H]1CC[C@@H](n2ncc3ncc(Nc4cc(OC(F)F)[nH]n4)nc32)C1` (single isomer, unassigned) [Example 210], the figures for the IC50 in assay [1] and in assay [2] were at least 500 nM and over 100 nM, respectively.
For the compound `OC1(Cn2ncc3ncc(Nc4cc(OC(F)F)[nH]n4)nc32)CCOCC1` [Example 49, 4-((6-((5-(difluoromethoxy)-1H-pyrazol-3-yl)amino)-1H-pyrazolo[3,4-b]pyrazin-1-yl)methyl)tetrahydro-2H-pyran-4-ol], the values for the IC50 in assay [1] and in assay [2] were 100 to 500 nM and at most 10 nM, respectively.
Turning to `O[C@H]1CC[C@@H](n2ncc3ncc(Nc4cc(OC(F)F)[nH]n4)nc32)C1` (single isomer, unassigned) [Example 207], the IC50 in assay [1] was at least 500 nM; in assay [2], 10 to 20 nM.
The corresponding values for `FC(F)Oc1cc(Nc2cnc3cnn(CC4CC4)c3n2)n[nH]1` [Example 80, 1-(cyclopropylmethyl)-N-(5-(difluoromethoxy)-1H-pyrazol-3-yl)-1H-pyrazolo[3,4-b]pyrazin-6-amine] are at least 500 nM and at most 10 nM.
The corresponding values for `C[C@@H](c1ccccc1F)n1ncc2ncc(Nc3cc(OC(F)F)[nH]n3)nc21` [Example 46, (S)-N-(5-(difluoromethoxy)-1H-pyrazol-3-yl)-1-(1-(2-fluorophenyl)ethyl)-1H-pyrazolo[3,4-b]pyrazin-6-amine] are at least 500 nM and at most 10 nM.
As for `C[C@@H](c1ccccn1)n1ncc2ncc(Nc3cc(OC(F)F)[nH]n3)nc21` [Example 4, (S)—N-(5-(difluoromethoxy)-1H-pyrazol-3-yl)-1-(1-(pyridin-2-yl)ethyl)-1H-pyrazolo[3,4-b]pyrazin-6-amine], the IC50 in assay [1] was at least 500 nM; in assay [2] it was at most 10 nM.
As to `C[C@@H](CCO)n1ncc2ncc(Nc3cc(OC(F)F)[nH]n3)nc21` (single isomer, unassigned) [Example 206, (R)-3-(6-((5-(difluoromethoxy)-1H-pyrazol-3-yl)amino)-1H-pyrazolo[3,4-b]pyrazin-1-yl)butan-1-ol or (S)-3-(6-((5-(difluoromethoxy)-1H-pyrazol-3-yl)amino)-1H-pyrazolo[3,4-b]pyrazin-1-yl)butan-1-ol], the IC50 is at least 500 nM in assay [1] and over 100 nM in assay [2].
On to `COc1cc(Nc2cnc3cnn([C@@H](C)c4cc(F)ccn4)c3n2)n[nH]1` (single isomer, unassigned) [Example 187, (R)-1-(1-(4-fluoropyridin-2-yl)ethyl)-N-(5-methoxy-1H-pyrazol-3-yl)-1H-pyrazolo[3,4-b]pyrazin-6-amine or (S)-1-(1-(4-fluoropyridin-2-yl)ethyl)-N-(5-methoxy-1H-pyrazol-3-yl)-1H-pyrazolo[3,4-b]pyrazin-6-amine], for which the values for the IC50 in assay [1] and in assay [2] were at least 500 nM and over 100 nM, respectively.
Take `FC[C@@H](c1ccccn1)n1ncc2ncc(Nc3cc(OC(F)F)[nH]n3)nc21` (single isomer, unassigned) [Example 15, (R)—N-(5-(difluoromethoxy)-1H-pyrazol-3-yl)-1-(2-fluoro-1-(pyridin-2-yl)ethyl)-1H-pyrazolo[3,4-b]pyrazin-6-amine or (S)—N-(5-(difluoromethoxy)-1H-pyrazol-3-yl)-1-(2-fluoro-1-(pyridin-2-yl)ethyl)-1H-pyrazolo[3,4-b]pyrazin-6-amine]: the IC50 in assay [1] is at least 500 nM; in assay [2], 30 to 100 nM.
The matching figures for `C[C@@H](O)c1nn(CC2CCOCC2)c2nc(Nc3cc(OC(F)F)[nH]n3)cnc12` (single isomer, unassigned) [Example 175, (R)-1-(6-((5-(difluoromethoxy)-1H-pyrazol-3-yl)amino)-1-((tetrahydro-2H-pyran-4-yl)methyl)-1H-pyrazolo[3,4-b]pyrazin-3-yl)ethan-1-ol or (S)-1-(6-((5-(difluoromethoxy)-1H-pyrazol-3-yl)amino)-1-((tetrahydro-2H-pyran-4-yl)methyl)-1H-pyrazolo[3,4-b]pyrazin-3-yl)ethan-1-ol]: 100 to 500 nM and at most 10 nM.
The matching figures for `C[C@H](c1cccc(F)n1)n1ncc2ncc(Nc3cc(OC(F)F)[nH]n3)nc21` (single isomer, unassigned) [Example 155, (R)-N-(5-(difluoromethoxy)-1H-pyrazol-3-yl)-1-(1-(6-fluoropyridin-2-yl)ethyl)-1H-pyrazolo[3,4-b]pyrazin-6-amine or (S)-N-(5-(difluoromethoxy)-1H-pyrazol-3-yl)-1-(1-(6-fluoropyridin-2-yl)ethyl)-1H-pyrazolo[3,4-b]pyrazin-6-amine]: at least 500 nM and 30 to 100 nM.
On to `N#C[C@H]1C[C@@H]1Cn1ncc2ncc(Nc3cc(OC(F)F)[nH]n3)nc21` (single isomer, unassigned) [Example 27, (1S,2S)-2-((6-((5-(difluoromethoxy)-1H-pyrazol-3-yl)amino)-1H-pyrazolo[3,4-b]pyrazin-1-yl)methyl)cyclopropane-1-carbonitrile or (1R,2R)-2-((6-((5-(difluoromethoxy)-1H-pyrazol-3-yl)amino)-1H-pyrazolo[3,4-b]pyrazin-1-yl)methyl)cyclopropane-1-carbonitrile], for which the IC50 in assay [1] is 100 to 500 nM; in assay [2], at most 10 nM.
For the compound `COc1cc(Nc2cnc3cnn(C[C@@H]4CCCOC4)c3n2)n[nH]1` [Example 139, (S)-N-(5-methoxy-1H-pyrazol-3-yl)-1-((tetrahydro-2H-pyran-3-yl)methyl)-1H-pyrazolo[3,4-b]pyrazin-6-amine], the IC50 in assay [1] is at least 500 nM; in assay [2], 10 to 20 nM.
As for `C[C@@H](CCO)n1ncc2ncc(Nc3cc(OC(F)F)[nH]n3)nc21` (single isomer, unassigned) [Example 205, (S)-3-(6-((5-(difluoromethoxy)-1H-pyrazol-3-yl)amino)-1H-pyrazolo[3,4-b]pyrazin-1-yl)butan-1-ol or (R)-3-(6-((5-(difluoromethoxy)-1H-pyrazol-3-yl)amino)-1H-pyrazolo[3,4-b]pyrazin-1-yl)butan-1-ol], the IC50 in assay [1] was at least 500 nM; in assay [2] it was 30 to 100 nM.
As to `COc1cc(Nc2cnc3cnn([C@H](C)C4CC4)c3n2)n[nH]1` [Example 73, (R)-1-(1-cyclopropylethyl)-N-(5-methoxy-1H-pyrazol-3-yl)-1H-pyrazolo[3,4-b]pyrazin-6-amine], the values for the IC50 in assay [1] and in assay [2] were at least 500 nM and 10 to 20 nM, respectively.
The corresponding values for `C[C@H]([C@H]1CCOC1)n1ncc2ncc(Nc3cc(OC(F)F)[nH]n3)nc21` (single isomer, unassigned) [Example 10] are under 100 nM and at most 10 nM.
In the case of `CC1(C)C[C@H](Cn2ncc3ncc(Nc4cc(OC(F)F)[nH]n4)nc32)C(=O)N1` (single isomer, unassigned) [Example 184, (R)-3-((6-((5-(difluoromethoxy)-1H-pyrazol-3-yl)amino)-1H-pyrazolo[3,4-b]pyrazin-1-yl)methyl)-5,5-dimethylpyrrolidin-2-one or (S)-3-((6-((5-(difluoromethoxy)-1H-pyrazol-3-yl)amino)-1H-pyrazolo[3,4-b]pyrazin-1-yl)methyl)-5,5-dimethylpyrrolidin-2-one], the IC50 in assay [1] is at least 500 nM; in assay [2], 30 to 100 nM.
The corresponding values for `CCOc1cc(Nc2cnc3cnn(CC4CCOCC4)c3n2)n[nH]1` [Example 38, N-(5-ethoxy-1H-pyrazol-3-yl)-1-((tetrahydro-2H-pyran-4-yl)methyl)-1H-pyrazolo[3,4-b]pyrazin-6-amine] are 100 to 500 nM and at most 10 nM.
For the compound `FC(F)Oc1cc(Nc2cnc3cnn(C[C@@H]4CCCCO4)c3n2)n[nH]1` [Example 103, (S)-N-(5-(difluoromethoxy)-1H-pyrazol-3-yl)-1-((tetrahydro-2H-pyran-2-yl)methyl)-1H-pyrazolo[3,4-b]pyrazin-6-amine], the IC50 was at least 500 nM in assay [1] and 20 to 30 nM in assay [2].
As for `COc1cc(Nc2cnc3cnn(CC45CCC(CC4)OC5)c3n2)n[nH]1` [Example 136, 1-((2-oxabicyclo[2.2.2]octan-4-yl)methyl)-N-(5-methoxy-1H-pyrazol-3-yl)-1H-pyrazolo[3,4-b]pyrazin-6-amine], the IC50 in assay [1] was at least 500 nM; in assay [2], 10 to 20 nM.
